Laboratory results reported in ChEMBL document CHEMBL5365407, “Design, synthesis and biological evaluation of nitric oxide-releasing 5-cyano-6-phenyl-2, 4-disubstituted pyrimidine derivatives” (Bioorg Med Chem Lett, 2023).
Each block holds one molecule with its values, some of them ahead of it. Activity calls are given as the source filed them. No cut-off for these calls is given here.

Legend:
[1] = target: T1, Tyrosine-protein kinase JAK3 (Homo sapiens, UniProt P52333); assay: biochemical; format: cell-based, Sf9
T1 sequence (P52333 whole entry): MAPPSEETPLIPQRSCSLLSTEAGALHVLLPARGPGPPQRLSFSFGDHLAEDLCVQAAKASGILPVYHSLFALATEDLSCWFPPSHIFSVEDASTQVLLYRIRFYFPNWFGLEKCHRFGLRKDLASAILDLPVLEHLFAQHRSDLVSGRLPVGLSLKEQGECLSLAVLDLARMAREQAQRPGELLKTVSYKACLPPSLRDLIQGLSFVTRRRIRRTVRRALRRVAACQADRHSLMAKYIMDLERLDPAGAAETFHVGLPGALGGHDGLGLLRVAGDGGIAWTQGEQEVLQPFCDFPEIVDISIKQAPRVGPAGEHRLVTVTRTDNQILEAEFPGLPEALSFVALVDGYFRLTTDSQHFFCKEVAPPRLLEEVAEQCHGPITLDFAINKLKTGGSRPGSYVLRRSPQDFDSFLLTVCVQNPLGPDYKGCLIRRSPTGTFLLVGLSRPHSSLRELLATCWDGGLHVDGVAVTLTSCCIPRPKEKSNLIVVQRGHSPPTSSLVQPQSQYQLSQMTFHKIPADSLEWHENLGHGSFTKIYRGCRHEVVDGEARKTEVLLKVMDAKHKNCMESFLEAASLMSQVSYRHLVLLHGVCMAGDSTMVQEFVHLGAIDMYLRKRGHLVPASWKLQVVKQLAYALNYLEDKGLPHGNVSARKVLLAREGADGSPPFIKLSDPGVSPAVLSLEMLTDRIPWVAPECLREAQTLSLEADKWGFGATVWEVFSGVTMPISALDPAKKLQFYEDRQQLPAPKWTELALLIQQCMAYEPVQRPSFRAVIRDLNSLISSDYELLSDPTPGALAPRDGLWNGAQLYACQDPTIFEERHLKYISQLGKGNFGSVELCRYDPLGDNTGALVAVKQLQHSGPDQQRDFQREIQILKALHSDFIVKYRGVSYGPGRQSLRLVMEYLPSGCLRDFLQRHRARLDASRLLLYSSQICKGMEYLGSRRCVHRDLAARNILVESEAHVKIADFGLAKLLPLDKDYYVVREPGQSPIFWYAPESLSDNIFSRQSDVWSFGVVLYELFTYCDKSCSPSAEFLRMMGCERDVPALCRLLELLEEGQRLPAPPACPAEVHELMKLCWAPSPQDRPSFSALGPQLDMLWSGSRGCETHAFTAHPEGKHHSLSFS
Description: Inhibition of recombinant human N-terminal GST-tagged JAK3 (781 to end residues) expressed in baculovirus infected Sf9 cells using poly (Glu,Tyr) 4:1 as substrate incubated for 60 mins in presence of ATP by ADP-Glo kinase assay

[2] = system: Bel7402/5-FU; assay: Antiproliferative activity against human BEL-7402/5-FU cell; format: functional, cell-based
[3] = target: Lysine-specific histone demethylase 1A (Homo sapiens, UniProt O60341); assay: Inhibition of LSD1 (unknown origin)
[4] = system: MGC-803; assay: Antiproliferative activity against human MGC-803 cells assessed as decrease in number of colonies by crystal violet staining based assay; format: functional, cell-based; conditions: dose 0.5-2 µM
[5] = system: MGC-803; assay: Induction of apoptosis in human MGC-803 cells assessed as viable cells at 0.5 uM by Annexin V-FITC/PI staining based flow cytometric analysis (reference value: 94.4%); format: functional; conditions: read-out: Activity
[6] = system: MGC-803; assay: Induction of apoptosis in human MGC-803 cells assessed as early apoptotic cells at 1 uM by Annexin V-FITC/PI staining based flow cytometric analysis (reference value: 2.79%); format: functional
[7] = system: MGC-803; assay: Induction of cell cycle arrest in human MGC-803 cells assessed as accumulation of cells at G0/G1 phase at 2 uM incubated for 24 hrs by PI staining based flow cytometry analysis (reference value: 56.68 %); format: functional
[8] = system: MGC-803; assay: Induction of reactive oxygen species generation in human MGC-803 cells by DCFH-DA staining fluorescence assay; format: functional, cell-based; conditions: dose 0.5-2 µM
[9] = system: MGC-803; assay: Induction of cell cycle arrest in human MGC-803 cells assessed as accumulation of cells at G2/M phase at 1 uM incubated for 24 hrs by PI staining based flow cytometry analysis (reference value: 14.32 %); format: functional
[10] = system: MGC-803; assay: Induction of cell cycle arrest in human MGC-803 cells assessed as accumulation of cells at G0/G1 phase at 0.5 uM incubated for 24 hrs by PI staining based flow cytometry analysis (reference value: 56.68 %); format: functional
[11] = system: MGC-803; assay: Induction of cell cycle arrest in human MGC-803 cells assessed as accumulation of cells at S phase at 2 uM incubated for 24 hrs by PI staining based flow cytometry analysis (reference value: 29.00 %); format: functional
[12] = system: MGC-803; assay: Induction of morphological changes in human MGC-803 cells assessed as appearance of broken cell at 0.5 to 2 uM incubated for 48 hrs by DAPI staining based fluorescence microscopy; format: functional; conditions: dose 0.5-2 µM
[13] = Induction of NO release in phosphate buffer containing excess L-cysteine measured up to 14 hrs by Griess assay; format: functional
[14] = system: MGC-803; assay: Induction of apoptosis in human MGC-803 cells assessed as late apoptotic cells at 2 uM by Annexin V-FITC/PI staining based flow cytometric analysis (reference value: 2.14 %); format: functional
[15] = system: MGC-803; assay: Induction of cell cycle arrest in human MGC-803 cells assessed as accumulation of cells at S phase at 0.5 uM incubated for 24 hrs by PI staining based flow cytometry analysis (reference value: 29.00 %); format: functional
[16] = system: MGC-803; assay: Antiproliferative activity against human MGC-803 cells assessed as reduction in colony area at 0.5 to 2 uM by crystal violet staining based assay; format: functional, cell-based; conditions: dose 0.5-2 µM
[17] = system: MGC-803; assay: Induction of cell cycle arrest in human MGC-803 cells assessed as accumulation of cells at S phase at 1 uM incubated for 24 hrs by PI staining based flow cytometry analysis (reference value: 29.00 %); format: functional
[18] = system: MGC-803; assay: Induction of apoptosis in human MGC-803 cells assessed as necrotic cells at 2 uM by Annexin V-FITC/PI staining based flow cytometric analysis (reference value: 0.69%); format: functional
[19] = system: MGC-803; assay: Induction of apoptosis in human MGC-803 cells assessed as necrotic cells at 0.5 uM by Annexin V-FITC/PI staining based flow cytometric analysis (reference value: 0.69%); format: functional
[20] = system: MGC-803; assay: cells; conditions: Homo sapiens, MGC-803, 72 h
Description: Antiproliferative activity against human MGC-803 cells measured after 72 hrs by MTT assay

[21] = system: PC-3; assay: Antiproliferative activity against human PC-3 cells measured after 72 hrs by MTT assay; format: functional, cell-based; conditions: PC-3, 72 h
[22] = system: MGC-803; assay: Induction of apoptosis in human MGC-803 cells assessed as necrotic cells at 1 uM by Annexin V-FITC/PI staining based flow cytometric analysis (reference value: 0.69%); format: functional
[23] = system: MGC-803; assay: Induction of cell cycle arrest in human MGC-803 cells assessed as accumulation of cells at G0/G1 phase at 1 uM incubated for 24 hrs by PI staining based flow cytometry analysis (reference value: 56.68 %); format: functional
[24] = system: MGC-803; assay: Induction of apoptosis in human MGC-803 cells assessed as viable cells at 1 uM by Annexin V-FITC/PI staining based flow cytometric analysis (reference value: 94.4%); format: functional; conditions: read-out: Activity
[25] = system: MGC-803; assay: Induction of apoptosis in human MGC-803 cells assessed as early apoptotic cells at 0.5 uM by Annexin V-FITC/PI staining based flow cytometric analysis (reference value: 2.79%); format: functional
[26] = system: MGC-803; assay: Induction of cell cycle arrest in human MGC-803 cells assessed as accumulation of cells at G2/M phase at 0.5 uM incubated for 24 hrs by PI staining based flow cytometry analysis (reference value: 14.32 %); format: functional
[27] = system: MGC-803; assay: Induction of morphological changes in human MGC-803 cells assessed as nuclear condensation at 0.5 to 2 uM incubated for 48 hrs by DAPI staining based fluorescence microscopy; format: functional, cell-based; conditions: dose 0.5-2 µM
[28] = system: ECa-109 cell line; assay: Antiproliferative activity against human Eca-109 cells measured after 72 hrs by MTT assay; format: functional, cell-based; conditions: ECa-109, 72 h
[29] = system: MGC-803; assay: Induction of apoptosis in human MGC-803 cells assessed as viable cells at 2 uM by Annexin V-FITC/PI staining based flow cytometric analysis (reference value: 94.4%); format: functional; conditions: read-out: Activity
[30] = system: MGC-803; assay: Induction of apoptosis in human MGC-803 cells assessed as late apoptotic cells at 1 uM by Annexin V-FITC/PI staining based flow cytometric analysis (reference value: 2.14 %); format: functional
[31] = system: MGC-803; assay: Induction of apoptosis in human MGC-803 cells assessed as late apoptotic cells at 0.5 uM by Annexin V-FITC/PI staining based flow cytometric analysis (reference value: 2.14 %); format: functional
[32] = system: MGC-803; assay: Antiproliferative activity against human MGC-803 assessed as cell survival by MTT assay relative to control; format: functional
[33] = system: MCF7; assay: cells; conditions: Homo sapiens, MCF7, 72 h
Description: Antiproliferative activity against human MCF7 cells measured after 72 hrs by MTT assay

[34] = system: MGC-803; assay: Induction of morphological changes in human MGC-803 cells assessed as nuclear shrinkage at 0.5 to 2 uM incubated for 48 hrs by DAPI staining based fluorescence microscopy; format: functional, cell-based; conditions: dose 0.5-2 µM
[35] = system: MGC-803; assay: Induction of morphological changes in human MGC-803 cells assessed as appearance of dense and concentrated granules at 0.5 to 2 uM for 48 hrs by DAPI staining based fluorescence microscopy; format: functional, cell-based; conditions: dose 0.5-2 µM
[36] = system: MGC-803; assay: Antiproliferative activity against human MGC-803 assessed as reduction in cell survival measured after 24 hrs in presence of NO scavenger hemoglobin at 1 to 20 uM by MTT assay; format: functional, cell-based
[37] = system: MGC-803; assay: Induction of apoptosis in human MGC-803 cells by Annexin V-FITC/PI staining based flow cytometric analysis; format: functional, cell-based; conditions: dose 0.5-2 µM
[38] = system: MGC-803; assay: Induction of apoptosis in human MGC-803 cells assessed as early apoptotic cells at 2 uM by Annexin V-FITC/PI staining based flow cytometric analysis (reference value: 2.79%); format: functional
[39] = system: MGC-803; assay: Induction of cell cycle arrest in human MGC-803 cells assessed as accumulation of cells at G2/M phase at 2 uM incubated for 24 hrs by PI staining based flow cytometry analysis (reference value: 14.32 %); format: functional

IC50 [1]: 20.7 nM
SMILES: N#Cc1ccccc1Nc1nc(Nc2ccc(NC(=O)CN3CCOCC3)cc2)ncc1Cl

IC50 [2]: 420 nM
SMILES: O=C1C(NCCOc2no[n+]([O-])c2S(=O)(=O)c2ccccc2)=CC(=O)c2ncccc21

IC50 [3]: 956 nM
SMILES: COc1ccc(/C=N/NC2NC(SCC(C)C)=NC(c3ccc(OC)cc3)=C2C#N)cc1 (centres undefined)

IC50 [20]: 950 nM
IC50 [21]: 1140 nM
IC50 [33]: 2030 nM
SMILES: COc1cc(Nc2nc(SCC(=O)N3CCN(CCOc4no[n+]([O-])c4S(=O)(=O)c4ccccc4)CC3)nc(-c3ccccc3)c2C#N)cc(OC)c1OC
Activity [4]: Dose-Dependent Effect
viability at 0.5 µM [5]: 75.2%
Activity [6]: 7.71%
Activity [7]: 74.33%
Activity [8]: Dose-Dependent Effect
Activity [9]: 14.43%
Activity [10]: 60.59%
Activity [11]: 15.27%
Activity [12]: Active
Activity [13]: Active
Activity [14]: 28.7%
Activity [15]: 24.83%
Activity [16]: Active
Activity [17]: 19.71%
Activity [18]: 2.69%
Activity [19]: 3.22%
Activity [22]: 3.21%
Activity [23]: 65.87%
viability at 1 µM [24]: 65.1%
Activity [25]: 6.5%
Activity [26]: 14.58%
Activity [27]: Active
IC50 [28]: 2210 nM
viability at 2 µM [29]: 58.3%
Activity [30]: 24%
Activity [31]: 15.1%
Activity [32]: 20%
Activity [34]: Active
Activity [35]: Active
Activity [36]: inactive
Activity [37]: Dose-Dependent Effect
Activity [38]: 10.4%
Activity [39]: 10.4%
